Test system: complément
Assay: Anti-complement activity: inhibition of complement in fresh serum (technique of Chevance & Etievant / Rapp & Borsos)
Assay type: biochemical
Settings: fresh serum diluted 1/40, 37°C, 45 minutes
Text: L'activité anti-complément des substances visées par l'invention peut être mise en évidence suivant la technique décrite dans l'article de L-G-CHEVANCE et M. ETIEVANT "Etude d'un peptide (sel de magnésium de l' acide N-Acétyl (α-β)- Aspartyl-glutamique) mise en évidence de la protection contre les destructions cellulaires locales provoquées par l'activation in situ du complément" (J. Pharmacol. Paris 1986 n° 4, 676-685), ainsi que dans la parution de J. RAPP et T. BORSOS "Molecular basis of complement action" Appleton Century Crofts publ. 1970.
Après titrage du complément, on incube à 37°C pendant 45 minutes des prélèvements aliquots de 40 µl de sérum frais dilué au 1/40e, mélangés chacun respectivement à 40 µl de solutions aqueuses de concentrations croissantes de chaque substance analysée : acide L-glutamique, glutamate de sodium, gomme arabique et d'un mélange, à concentrations égales de gomme arabique et de glutamate de sodium.

| SMILES | % inhibition (Concentration 0,5 %) | % inhibition (Concentration 0,25 %) | % inhibition (Concentration 1 %) | % inhibition (Concentration 0,062 %) | % inhibition (Concentration 0,125 %) | % inhibition (Concentration 0,05 %) | % inhibition (Concentration 1,5 %) | % inhibition (Concentration 2 %) |
| --- | --- | --- | --- | --- | --- | --- | --- | --- |
| N[C@@H](CCC(=O)O)C(=O)O [Glutamate de sodium, L-glutamate de sodium] | 0,175% | 0,112% | 0,216% | 0,101% | 0,116% |  |  |  |
| N[C@@H](CCC(=O)O)C(=O)O [Acide glutamique, acide L-glutamique] | 0,092% | 0,000% | 0,077% |  |  | 0,033% | 0,369% | 0,661% |
